Measured values: the METLIN SMRT retention time set (Domingo-Almenara et al. 2019)

Assay: gradient 5% acetonitrile 3 min, to 50% in 2 min, to 85% in 15 min, held 3 min, 100 µL/min
Conditions: column: Zorbax Extend-C18 2.1 x 50 mm; eluents: water / acetonitrile, 0.1% formic acid
Summary of the method: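 Values are retention times taken from adduct peaks that software picked and an analyst inspected. The pure standards were run as mixtures of ~100 molecules on HPLC linked to a quadrupole time-of-flight mass spectrometer, in positive and negative ionization mode. A Zorbax Extend-C18 column (2.1 × 50 mm, 1.8 μm) was used at 100 μL/min with water and acetonitrile, each including 0.1% formic acid.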

RP-LC retention time | SMILES
674 s | CCc1ccccc1NC(=O)Cn1c(N2CCOCC2)nc(C)cc1=O
1050 s | COc1ccc(NC(=O)CN2CCc3[nH]c4c(C)ccc(F)c4c(=O)c3C2)cc1OC
928 s | Cc1ccc(NC(=O)C(C)C2CCN(C(=O)Nc3ccc(F)cc3)CC2)cc1C (stereo unspecified)
802 s | CCOc1cc(=O)n2c(c1C(=O)Nc1cccc(Br)c1)CCCC2
803 s | CCN1C(=O)c2cccnc2Sc2cc(C(=O)NCc3ccccc3F)ccc21
626 s | O=C(NCC1CCN(Cc2ccccc2)CC1)C(=O)Nc1ccc(OC(F)(F)F)cc1
696 s | COc1ccc(-c2cc(N3CCC(NC(=O)c4ccc(F)cc4F)C3)n[nH]2)cc1 (stereo unspecified)
1300 s | CC(C)Cn1c(=O)c2ccccc2n(Cc2nc(-c3ccc(C(F)(F)F)cc3)no2)c1=O
662 s | COc1ccc(-c2nc3ccccn3c2NC(=O)c2ccc([N+](=O)[O-])cc2)cc1
849 s | CCOC(=O)c1ccc(Nc2c(-c3ccccc3)nc3cnccn23)cc1
1010 s | Cc1cc(=O)n(CC(=O)Nc2cc(F)ccc2F)c(-c2ccccc2)n1
1120 s | Cc1ccc(N2C(=O)C3N=NN(Cc4nc(-c5cccc(Br)c5)no4)C3C2=O)cc1C (stereo unspecified)
885 s | O=C(Cn1nc2c(Oc3cccc(F)c3)nccn2c1=O)Nc1cc(F)ccc1F
658 s | CC1CCCCN1Cc1nc(Cn2ccn3nc(-c4ccccc4)cc3c2=O)no1 (stereo unspecified)
937 s | CC(C)(OCc1nn(Cc2ccccc2)c2ccccc12)C(=O)O
608 s | O=C(C1CCCO1)N1CCn2c(nnc2-c2ccccc2)C1 (stereo unspecified)
795 s | Cc1ccccc1Nc1c(-c2ccc(N3CCOCC3)cc2)nc2ccc(Br)cn12
784 s | CCn1cc(-c2nc(C)c(C(=O)NCc3ccccc3)s2)c2cccnc21
983 s | COc1ccccc1NC(=O)c1cn(CC2CCCO2)cc2c(=O)n(-c3ccccc3)nc1-2 (stereo unspecified)
1080 s | Cc1ccc(-n2c(N3CCCC(C(=O)Nc4ccc(Cl)cc4)C3)nc3ccsc3c2=O)cc1 (stereo unspecified)
1050 s | COc1ccc(-c2nc(-c3cn(-c4ccc(C)cc4)nn3)no2)cc1OC

RP-LC retention time | SMILES
761 s | COc1ccc(CC(=O)Nc2nnc(C3CC(=O)N(c4ccc(Cl)cc4)C3)o2)cc1 (stereo unspecified)
861 s | CCOc1ccc(CNC(=O)C2=Cc3cc(OC)ccc3OC2)cc1OC
884 s | CCCn1ccc2sc(C)c(C(=O)N(CC)Cc3ccccc3)c2c1=O
696 s | COc1ccc(CC(=O)N2CCCC2c2c(C)noc2C)cc1OC (stereo unspecified)
1000 s | CCOc1ccc(NC(=O)Nc2nccn(-c3cccc(Cl)c3)c2=O)cc1
767 s | CCOc1ccc2nc(C(=O)Nc3ccc(N4CCOCC4)cc3)cn2n1
938 s | COc1ccc(CCNC(=O)C2CCCN(S(=O)(=O)c3ccc(OC)c(Cl)c3)C2)cc1 (stereo unspecified)
1270 s | CCc1ccc(-c2noc(-c3nnn(Cc4nc(-c5ccccc5OC)oc4C)c3C)n2)cc1
781 s | O=C(NCc1ccc(F)c(Cl)c1)C1CCN(c2ncnc3c2oc2ccccc23)CC1
806 s | COc1ccc(OC)c(CNC(=O)c2ccc3c(c2)NC(=O)C2CCCCN32)c1 (stereo unspecified)
616 s | CN(CCCNC(=O)C1CCCN(c2ncnc3c2nc2n3CCCCC2)C1)Cc1ccccc1 (stereo unspecified)
1150 s | O=C1c2ccccc2C(=O)c2oc(-c3ccccc3)nc21
733 s | COc1ccc(C(=O)N2C[C@@H]3C[C@H](NC(=O)c4cccs4)[C@H]2C3)cc1F
767 s | COc1ccc2[nH]cc(CCNC(=O)Cn3c4ccccc4c4cnn(C)c(=O)c43)c2c1
652 s | COc1ccc(C2(C(=O)N3CC[C@@H]4CN(Cc5ccccc5)[C@@H]4C3)CC2)cc1
872 s | CCOc1ccc(NC(=O)N2CCCC(C)(C(=O)NCc3cccc(OC)c3)C2)cc1 (stereo unspecified)
678 s | COc1ccccc1CCC(=O)N1C[C@@H]2C[C@H](NS(C)(=O)=O)[C@H]1C2
864 s | CCC(C)N(CC(=O)N(Cc1ccco1)CC1CCCO1)C(=O)c1ccc(F)cc1 (stereo unspecified)
656 s | CCOC(=O)CNC(=O)N1CCN(c2nc3ccccc3n2Cc2ccccc2)CC1
781 s | Cc1cccc(NC(=O)N2CCC(c3nc(C(=O)N4CCCC4)c(C)o3)CC2)c1C
970 s | O=C(Nc1cccc(OCc2nnc(-c3ccc(Cl)cc3)o2)c1)c1ccoc1

Second part, the molecule before the results:

SMILES | RP-LC retention time
O=C(CN1C(=O)NC2(CCCCC2)C1=O)Nc1ccc(F)cc1 | 731 s
Cc1ccc(N(C)S(=O)(=O)c2c(C)sc(C)c2-c2cc(C(F)(F)F)on2)cc1C | 1370 s
Cc1sc(NC(=O)COc2ccc(Cl)cc2)nc1-c1ccc2c(c1)N(C)C(=O)CO2 | 1040 s
O=C(C1CCCN(c2ncc(-c3cccc(F)c3)cn2)C1)N1CCC(N2CCCCC2)CC1 (stereo unspecified) | 689 s
CN(CCCNC(=O)C1CCc2nc(N3CCCCC3)ncc2C1)c1ccccc1 (stereo unspecified) | 793 s
NC(=O)[C@@H]1C[C@H](Oc2cccnc2)CN1C(=O)CCc1nc2ccccc2s1 | 589 s
O=C(C1CCC1)N1CCc2sc(S(=O)(=O)NCc3ccc(F)cc3Cl)cc2C1 | 948 s
COC(=O)c1c(C)[nH]c(C(=O)N2CCCC(C(=O)N3CCC(C)CC3)C2)c1C (stereo unspecified) | 758 s
Cc1nnc(CNC(=O)OC(C)(C)C)n1-c1ccccc1 | 624 s
O=C(NCCc1ccc(Cl)cc1)C(=O)Nc1ccc(F)cc1F | 971 s
Cc1ccc(C)c(NS(=O)(=O)c2cc3n(c2)CCN(C)C3=O)c1 | 707 s
CC(=O)Nc1cc2c(cc1S(=O)(=O)c1ccc(C)cc1)n(C)c(=O)n2C | 683 s
COCCn1c(C)cc(O)c(C(c2ccc(OC)cc2OC)N2CCCCC2)c1=O (stereo unspecified) | 688 s
CN(C1CCOCC1)C1CCN(C(=O)CCc2nc3ccccc3[nH]2)CC1 | 519 s
Cc1[nH]c(C(=O)N2CCCC(C(=O)NCCCN3CCOCC3)C2)c(C)c1C (stereo unspecified) | 597 s
CCCCN1CCN(Cc2nc3nc(C)cc(N4CCCC4)n3n2)CC1 | 574 s
CC1CCCN(CCCNC(=O)C2CCCN(c3ncnc4c3nc3n4CCCCC3)C2)C1 (stereo unspecified) | 585 s
CC(C)c1ccc(NC(=O)Cn2cnc3nc(N4CCC(C(=O)NC5CC5)CC4)sc3c2=O)cc1 | 748 s
CCOC(=O)C(CC)SC1=NS(=O)(=O)c2cc(F)ccc2N1 (stereo unspecified) | 758 s
COC(=O)c1ccc(NC(=O)C2(C)Oc3cccnc3N(C(C)C)C2=O)cc1 (stereo unspecified) | 991 s
CCCNC(=O)Cc1c(C)nn(-c2nc(-c3ccc(Cl)cc3)cs2)c1C | 1110 s
CC(C)Cc1ccc(S(=O)(=O)N2CCc3nc[nH]c3C2)cc1 | 693 s

SMILES | RP-LC retention time
O=C(CCn1nnc2cc(-c3noc(COc4ccc(Cl)cc4)n3)ccc21)N1CCCC1 | 942 s
CCOC(=O)c1c(C)c(CCC(=O)NCCN2CCCCCC2)n(C)c1C | 645 s
Cc1noc(-c2ccc(S(=O)(=O)N3CCN(c4ccccn4)CC3)s2)c1C | 730 s
COc1cccc(NS(=O)(=O)c2cc3n(c2)CCN(C)C3=O)c1 | 674 s
Cc1ccc(-c2noc(-c3ccc(N4CCN(C5CCCCC5)CC4)nc3)n2)cc1 | 848 s
CN1c2ccc(F)cc2C(=O)NC12CCN(C(=O)c1ccc(F)cc1)CC2 | 769 s
CCN1CCN(C(=O)c2ccc3ccnc(N4CCN(c5ccc(Cl)cc5)CC4)c3c2)CC1 | 618 s
Cc1cc(C(=O)N2C[C@@H](CO)[C@H](c3nc(C4CC4)no3)C2)c(C)o1 | 706 s
CC(C)CC(=O)Nc1ccc(N2CCN(CC(=O)N(C)C)CC2)cc1C(=O)O | 595 s
COc1ccc2c(c1)C1(CCN(C(=O)NCc3ccc(F)cc3)C1)C(=O)N2C (stereo unspecified) | 755 s
CN1CCN(CCCNC(=O)CC2CCN(C(=O)c3cc4cc(Cl)ccc4[nH]3)CC2)CC1 | 569 s
CC1CCN(C(=O)c2cc(S(=O)(=O)N3CCC(C(=O)N4CCC(C)CC4)CC3)cn2C)CC1 | 883 s
Cc1nn(C)c(C)c1S(=O)(=O)N1CCC2(CC1)c1[nH]c3ccccc3c1CCN2C | 668 s
CCS(=O)(=O)Nc1ccc(C2(C(=O)NCc3cccc(Cl)c3)CCC2)cc1 | 876 s
Cn1c(N2CCN(C(=O)COc3ccc(Cl)cc3)CC2)cc(=O)n(C)c1=O | 666 s
CCOC(=O)c1c(C)oc2nc(C)nc(N3CCN(c4ccccc4F)CC3)c12 | 1210 s
Cc1nc2c(c(C)c1CCC(=O)NCC1CCN(CC(C)C)C1)c(=O)n(C)c(=O)n2C (stereo unspecified) | 610 s
Cc1nc2nc(-c3ccc(C(C)(C)C)cc3)nn2c(C)c1CC(=O)N1CCOCC1 | 832 s
Cc1ccc(CN2N=C(C(=O)N3CCOCC3)S(=O)(=O)c3cc(Cl)ccc32)cc1 | 896 s
CCN1CCN(C(=O)Cc2c(C)nc3nc(-c4ccc(C(C)(C)C)cc4)nn3c2C)CC1 | 673 s
Cc1cccc(C)c1OCC(=O)N(Cc1ccc(Br)o1)C1CCS(=O)(=O)C1 (stereo unspecified) | 960 s
COc1ncc(C(=O)N2CCCC2)cn1 | 589 s
